In patent US20040115126A1, “Compositions and methods for the non-invasive detection of polypeptides in vivo” (The Regents of the University of Michigan, priority 2002, published 2004):

B1: TRAIL: TNF-related apoptosis inducing ligand (protein, UniProt P50591 1-281, looked up)
Tumor necrosis factor ligand …: MAMMEVQGGPSLGQTCVLIVIFTVLLQSLCVAVTYVYFTNELKQMQDKYSKSGIACFLKEDDSYWDPNDEESMNSPCWQVKWQLRQLVRKMILRTSEETISTVQEKQQNISPLVRERGPQRVAAHITGTRGRSNTLSSPNSKNEKALGRKINSWESSRSGHSFLSNLHLRNGELVIHEKGFYYIYSQTYFRFQEEIKENTKNDKQMVQYIYKYTSYPDPILLMKSARNSCWSKDAEYGLYSIYQGGIFELKENDRIFVSVTNEHLIDMDHEASFFGAFLVG

Experiments:
[1] = test system: 9L gliosarcoma cells genetically engineered to stably express firefly luciferase (9LLuc); experiment: BCNU chemotherapy of orthotopic 9L-Luc rat brain tumors, log cell kill from serial MRI and BLI; type: in vivo; settings: intracerebral 9LLuc tumor, treated 16 days after implantation, mean ±SEM, n=5
Description: Current assessment of orthotopic tumor models in animals utilizes survival as the primary therapeutic endpoint. In vivo bioluminescence imaging ([…]) is a sensitive imaging modality that is rapid and accessible, and comprises an ideal tool for evaluating antineoplastic therapies. Using human tumor cell lines constitutively expressing luciferase, the kinetics of tumor growth and response to therapy have been assessed in intraperitoneal, subcutaneous and intravascular cancer models. […] Therefore, the ability of BLI to noninvasively quantitate the growth and therapeutic-induced cell kill of orthotopic rat brain tumors derived from 9L gliosarcoma cells genetically engineered to stably express firefly luciferase (9L^Luc) was investigated.
Intracerebral tumor burden was monitored over time by quantifying photon emission and tumor volume using a cryogenically-cooled CCD camera and magnetic resonance imaging (MRI), respectively. Excellent correlation (r=0.91) between detected photons and tumor volume was found.
FIGS. 5A-5O show a temporal analysis of the response of a 9L^Luc tumor to BCNU chemotherapy. […] Tumor volume was monitored with T2-weighted MRI (FIGS. 5A-5F) and infra-tumoral luciferase activity was monitored with BLI (FIGS. 5G-5L). […] Quantitative analysis of tumor progression and response to BCNU chemotherapy is shown by the graph FIG. 50. […]

[2] = test system: D-54 derived stable cell line expressing a caspase-3 reporter molecule; experiment: Non-invasive bioluminescence imaging of apoptosis in D-54 caspase-3 reporter tumors in nude mice; type: in vivo; settings: 50 ug intratumorally, s.q. D-54 reporter tumors in nude mice, IVIS imaging after luciferin
Description: FIG. 6 depicts one strategy for imaging apoptosis. In this example, an estrogen regulatory domain results in silencing of luciferase due to sequestration. Activation of caspase-3 during apoptosis results in cleavage at the DEVD site, thus, releasing luciferase from the silencing effects of the estrogen regulatory domain. The free luciferase can, in the presence of luciferin, generate bioluminescense which can be imaged in vitro or in vivo using a Xenogen camera system.
FIGS. 8A and 8B depict non-invasive imaging of apoptosis. D-54 derived stable cell line expressing a caspase-3 reporter molecule similar to that described in FIG. 6 was implanted s.q. into nude mice. When the tumors reached a palpatable size they were treated with vector only (PBS, Panel A) or with 50 ug of TRAIL intratumoraly (panel B). Bioluminescent activity within the tumor was then measured after injection of luciferin using a IVIS imaging system.

[3] = test system: D-54 cells expressing ER-Luc-ER caspase-3 reporter; experiment: Western blot of caspase-3 reporter (ER-Luc-ER) cleavage in D-54 cells; type: cell-based; settings: various concentrations for 3 hrs
Description: FIG. 7 depicts a western blot showing induction of apoptosis. In D-54 cells, a caspase-3 reporter construct analogous to the one described in FIG. 6 except with ER domains as well as the caspase-3 cleavage sequence (DEVD) were present on the amino and carboxy termini (ER-Luc-ER) was used in the above studies. […] D-54 cells expressing this molecule were treated with TRAIL (TNF-related apoptosis inducing ligand) at various concentrations for 3 hrs.

| Molecule | Log cell kill calculated using BLI ([1]; BLI photon emission) | Log cell kill calculated using MRI ([1]; T2-weighted MRI tumor volume) | increase in bioluminescence compared to the vector control [2] | cleavage of ER-Luc-ER reporter (luciferase specific antibody western blot) [3] |
| --- | --- | --- | --- | --- |
| O=NN(CCCl)C(=O)NCCCl [BCNU, 1,3-bis(2-chloroethyl)-1 nitrosourea] | 1.84±0.73 | 1.78±0.36 |  |  |
| B1 |  |  | 2-3 × | cleaved to a 90 kD molecule (ER-Luc) and subsequently to Luc (60 kD) |
